Consider six compounds from publication PMC7380166, “How to Study the Metabolism of New Psychoactive Substances for the Purpose of Toxicological Screenings—A Follow-Up Study Comparing Pooled Human Liver S9, HepaRG Cells, and Zebrafish Larvae” (Frontiers in Chemistry, 2020).

The subject of one data set is zebrafish larvae. Put plainly: Zebrafish larvae exposure, metabolite identification by LC-HRMS/MS. The settings on record: for Absolute peak area, Zebrafish larvae [25 μM]: 25 μM 4F-MDMB-BINACA in medium, larvae 4 dpf, larvae extract, one replicate of n = 3, n.d. = not detected.
The nature of data set [1]: Incubations with pooled human liver S9 fraction (pHLS9), metabolite identification by LC-HRMS/MS. The class given is in vitro ADME. The settings on record: for Absolute peak area, pHLS9 1 h [25 μM] / Absolute peak area, pHLS9 6 h [25 μM]: 25 μM 4F-MDMB-BINACA, one replicate of n = 2, n.d. = not detected; for Absolute peak area, pHLS9 1 h [25 μM]: 1 h incubation; for Absolute peak area, pHLS9 6 h [25 μM]: 6 h incubation. The essentials: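 25 μM 4F-MDMB-BINACA incubated at 37°C with pHLS9 (2 mg/ml) plus phase I and II cofactors (NADP^+ regenerating system, UDPGA, PAPS, SAM, glutathione, acetyl-CoA), pH 7.4; sampled at 60 and 360 min, stopped with acetonitrile. Metabolites identified by positive-mode LC-HRMS/MS (full scan plus targeted MS^2), 5 ppm tolerance.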

The test system of a further data set is HepaRG cells. Kind of data set: Incubations with HepaRG cells, metabolite identification by LC-HRMS/MS. The class given is in vitro ADME, human. The conditions noted are these: for Absolute peak area, HepaRG [25 μM]: 25 μM parent NPS; for Absolute peak area, HepaRG [25 μM] / Absolute peak area, HepaRG [250 μM]: cell culture medium, one replicate of n = 3, n.d. = not detected; for Absolute peak area, HepaRG [250 μM]: 250 μM parent NPS.

The next data set addresses T1, CYP3A5 (Homo sapiens, UniProt P20815).
T1 construct: purchased Corning; host or cells: baculovirus-transfected insect cell microsomes (Supersomes)
Put plainly: Monooxygenases activity screening, CYP3A5. The class given is in vitro ADME. Also on record: key: +, detected; –: −, not detected. The conditions noted are these: 25 μM 4F-MDMB-BINACA, 50 pmol/ml enzyme, 30 min, 37°C, duplicate. Here is the method:
(§1) According to an established protocol (Wagmann et al., [2016]), the final volume per reaction tube was 50 μl with a final 4F-MDMB-BINACA concentration of 25 μM and enzyme concentrations of 50 pmol/ml for CYP1A2, CYP2A6, CYP2B6, CYP2C8, CYP2C9, CYP2C19, CYP2D6, CYP2E1, CYP3A4, and CYP3A5, respectively, or 0.25 mg protein/ml for FMO3. Furthermore, the reaction mixture contained 90 mM phosphate buffer (pH 7.4), superoxide dismutase (200 U/ml), isocitrate (5 mM), MgCl2 (5 mM), isocitrate dehydrogenase (0.5 U/ml), and NADP^+ (1.2 mM). The phosphate buffer was replaced with Tris buffer (90 mM) for incubations with CYP2A6 and CYP2C9 according to the manufacturer's recommendation. All incubations were performed at 37°C for 30 min and terminated by adding 50 μl of ice-cold acetonitrile. Afterwards, the mixtures were centrifuged at 18,407 × g for 5 min, 70 μl of the supernatants was transferred into autosampler vials, and 1 μl was injected onto the LC-HRMS/MS system. Positive control incubations were performed with pHLM (1 mg microsomal protein/ml), and negative controls without enzyme were prepared to identify non-metabolically formed compounds. All incubations were done in duplicate.

For the next data set, the target named is T2, CYP2D6 (Homo sapiens, UniProt P10635).
T2 construct: purchased Corning; host or cells: baculovirus-transfected insect cell microsomes (Supersomes)
T2 sequence (P10635 whole entry): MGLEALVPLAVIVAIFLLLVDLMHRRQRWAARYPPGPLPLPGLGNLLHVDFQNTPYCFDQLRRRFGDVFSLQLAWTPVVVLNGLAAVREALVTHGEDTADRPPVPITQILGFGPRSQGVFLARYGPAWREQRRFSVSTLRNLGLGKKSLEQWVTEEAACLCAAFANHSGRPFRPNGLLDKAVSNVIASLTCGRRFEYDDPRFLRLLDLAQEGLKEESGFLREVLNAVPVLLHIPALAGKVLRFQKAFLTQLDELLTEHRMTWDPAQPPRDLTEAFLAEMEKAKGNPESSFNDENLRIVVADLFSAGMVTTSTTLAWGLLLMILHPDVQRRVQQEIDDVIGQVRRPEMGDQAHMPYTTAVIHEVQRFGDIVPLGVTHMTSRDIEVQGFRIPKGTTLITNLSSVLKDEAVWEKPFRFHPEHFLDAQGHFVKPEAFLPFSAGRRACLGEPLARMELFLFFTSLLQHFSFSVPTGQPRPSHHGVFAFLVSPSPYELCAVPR
Put plainly: Monooxygenases activity screening, CYP2D6. The class given is in vitro ADME. Also on record: key: +, detected; –: −, not detected. The settings on record: 25 μM 4F-MDMB-BINACA, 50 pmol/ml enzyme, 30 min, 37°C, duplicate. Here is the method: as §1

In the next data set the target is T3, CYP2C19 (Homo sapiens, UniProt P33261).
T3 construct: purchased Corning; host or cells: baculovirus-transfected insect cell microsomes (Supersomes)
T3 sequence (P33261 whole entry): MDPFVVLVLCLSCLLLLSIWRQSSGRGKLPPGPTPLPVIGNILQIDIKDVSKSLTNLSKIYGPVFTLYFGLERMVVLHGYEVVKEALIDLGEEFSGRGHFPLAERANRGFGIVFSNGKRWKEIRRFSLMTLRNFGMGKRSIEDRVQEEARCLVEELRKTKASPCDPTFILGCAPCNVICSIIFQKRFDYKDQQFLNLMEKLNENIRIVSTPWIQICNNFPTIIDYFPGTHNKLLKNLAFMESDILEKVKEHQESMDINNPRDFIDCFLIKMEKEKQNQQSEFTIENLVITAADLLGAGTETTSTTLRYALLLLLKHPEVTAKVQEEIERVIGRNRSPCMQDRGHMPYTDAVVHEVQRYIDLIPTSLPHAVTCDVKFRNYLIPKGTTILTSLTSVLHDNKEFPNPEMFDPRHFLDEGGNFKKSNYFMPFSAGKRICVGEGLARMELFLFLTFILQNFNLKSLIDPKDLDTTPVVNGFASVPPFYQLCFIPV
Kind of data set: Monooxygenases activity screening, CYP2C19. Also on record: key: +, detected; –: −, not detected. The conditions noted are these: 25 μM 4F-MDMB-BINACA, 50 pmol/ml enzyme, 30 min, 37°C, duplicate. The format is in vitro ADME. Here is the method:
as §1

Where [2] appears, read: plasma, human data for ephylone and 4F-PHP from Wagmann et al., [2019b].
Where [3] appears, read: urine, human data for ephylone and 4F-PHP from Wagmann et al., [2019b].

The structures appear in SMILES notation.

T1 sequence (P20815 whole entry): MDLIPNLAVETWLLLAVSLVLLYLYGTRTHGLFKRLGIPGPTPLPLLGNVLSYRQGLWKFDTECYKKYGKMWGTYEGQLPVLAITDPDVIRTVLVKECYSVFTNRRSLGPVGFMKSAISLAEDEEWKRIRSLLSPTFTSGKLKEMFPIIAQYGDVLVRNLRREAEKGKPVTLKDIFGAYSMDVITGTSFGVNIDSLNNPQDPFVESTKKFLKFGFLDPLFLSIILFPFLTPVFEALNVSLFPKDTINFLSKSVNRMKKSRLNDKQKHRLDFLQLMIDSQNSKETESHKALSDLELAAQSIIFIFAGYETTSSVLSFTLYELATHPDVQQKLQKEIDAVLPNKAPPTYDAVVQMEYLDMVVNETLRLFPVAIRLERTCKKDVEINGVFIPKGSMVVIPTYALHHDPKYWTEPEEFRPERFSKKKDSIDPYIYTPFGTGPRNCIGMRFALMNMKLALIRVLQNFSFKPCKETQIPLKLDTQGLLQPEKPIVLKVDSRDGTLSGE

For `COC(=O)C(NC(=O)c1nn(CCCCF)c2ccccc12)C(C)(C)C` (centres unmarked) [4F-MDMB-BINACA, methyl 2-[1-(4-fluorobutyl)-1H-indazole-3-carbonyl]amino-3,3-dimethylbutanoate], in the data set with zebrafish larvae (24 h), the “Absolute peak area, Zebrafish larvae [25 μM]” value is listed as 2.89E+09. In the data set with zebrafish larvae (25 μM in medium, 24 h), the “Number of phase I metabolites detected, Zebrafish larvae” value came to 14 and the “Number of phase II metabolites detected, Zebrafish larvae” value was found to be 4. The “Relative number of matches with the four most abundant signals in human plasma, Zebrafish larvae” value in the data set with zebrafish larvae (plasma, larvae exposed to 25 μM) stood at 100%. Further, in the data set on zebrafish larvae (urine, larvae exposed to 25 μM), the “Relative number of matches with the four most abundant signals in human urine, Zebrafish larvae” value was found to be 75%. Moreover, in data set [1] (25 μM), the “Number of phase I metabolites detected, pHLS9 [25 μM]” value worked out at 15. Also, in data set [1], the “Absolute peak area, pHLS9 1 h [25 μM]” value stood at 9.37E+08 and the “Absolute peak area, pHLS9 6 h [25 μM]” value was 2.17E+08. Moreover, the “Relative number of matches with the four most abundant signals in human plasma, pHLS9 [25 μM]” value in data set [1] (setting [2]) is recorded as 100%. In data set [1] (setting [3]), the “Relative number of matches with the four most abundant signals in human urine, pHLS9 [25 μM]” value is 75%. In addition, in the data set with HepaRG cells (24 h), the “Absolute peak area, HepaRG [25 μM]” value was determined as 1.28E+08 and the “Absolute peak area, HepaRG [250 μM]” value is listed as 5.18E+08. In the data set on HepaRG cells (25 μM, 24 h), the “Number of phase I metabolites detected, HepaRG [25 μM]” value is on record as 7 and the “Number of phase II metabolites detected, HepaRG [25 μM]” value came out at 2. In the data set on HepaRG cells (250 μM, 24 h), the “Number of phase I metabolites detected, HepaRG [250 μM]” value amounted to 12 and the “Number of phase II metabolites detected, HepaRG [250 μM]” value is listed as 3. For the same compound, in the data set with HepaRG cells (setting [2]), the “Relative number of matches with the four most abundant signals in human plasma, HepaRG [25 μM]” value came to 50% and the “Relative number of matches with the four most abundant signals in human plasma, HepaRG [250 μM]” value was 75%. In the data set on HepaRG cells (setting [3]), the “Relative number of matches with the four most abundant signals in human urine, HepaRG [25 μM]” value stood at 50% and the “Relative number of matches with the four most abundant signals in human urine, HepaRG [250 μM]” value stood at 100%.

Consider `O=C(O)c1nn(CCCCF)c2ccccc12` [MB1], for which, on CYP3A5, the “Detection of metabolite in incubation with CYP3A5” value (shortened to “Detection … with CYP3A5”) is listed as “–”. Moreover, the “Detection of metabolite in incubation with CYP2D6” value (shortened to “Detection … with CYP2D6”) at CYP2D6 is listed as “–”. Further, in the data set with HepaRG cells (24 h), the “Absolute peak area, HepaRG [25 μM]” value is on record as 3.34E+04 and the “Absolute peak area, HepaRG [250 μM]” value came to 3.82E+06. Also, the “Detection of metabolite in incubation with CYP2C19” value (shortened to “Detection … with CYP2C19”) on CYP2C19 is given as “–”.

On to `COC(=O)[C@@H](NC(=O)c1n[nH]c2ccccc12)C(C)(C)C` [MB4], for which the “Absolute peak area, Zebrafish larvae [25 μM]” value in the data set with zebrafish larvae (24 h) was 7.45E+06. Further, in data set [1], the “Absolute peak area, pHLS9 1 h [25 μM]” value worked out at 5.62E+06 and the “Absolute peak area, pHLS9 6 h [25 μM]” value was 2.82E+05. In addition, the “Detection … with CYP3A5” value on CYP3A5 was “+”. Besides, the “Detection … with CYP2D6” value at CYP2D6 was “–”. In addition, the “Absolute peak area, HepaRG [250 μM]” value in the data set with HepaRG cells (24 h) is 9.55E+06. Moreover, the “Detection … with CYP2C19” value at CYP2C19 is “+”.

For the compound `CC(C)(C)C(NC(=O)c1nn(CCCCF)c2ccccc12)C(=O)O` (centres unmarked) [MB8], in the data set on zebrafish larvae (24 h), the “Absolute peak area, Zebrafish larvae [25 μM]” value was determined as 1.73E+07. In data set [1], the “Absolute peak area, pHLS9 1 h [25 μM]” value was 1.01E+08 and the “Absolute peak area, pHLS9 6 h [25 μM]” value is reported as 2.77E+08. For the same compound, the “Detection … with CYP3A5” value on CYP3A5 was “–”. At CYP2D6, the “Detection … with CYP2D6” value is reported as “–”. For the same compound, in the data set with HepaRG cells (24 h), the “Absolute peak area, HepaRG [25 μM]” value is 5.16E+07 and the “Absolute peak area, HepaRG [250 μM]” value is recorded as 1.63E+09. Further, the “Detection … with CYP2C19” value on CYP2C19 is given as “–”.

`COC(=O)[C@@H](NC(=O)c1nn(CCCCO)c2ccccc12)C(C)(C)C` [MB11]: the “Absolute peak area, Zebrafish larvae [25 μM]” value with zebrafish larvae (24 h) worked out at 2.92E+06. Also, in data set [1], the “Absolute peak area, pHLS9 1 h [25 μM]” value is given as 4.27E+06 and the “Absolute peak area, pHLS9 6 h [25 μM]” value worked out at 3.89E+05. On CYP3A5, the “Detection … with CYP3A5” value is given as “+”. Also, the “Detection … with CYP2D6” value at CYP2D6 is “–”. In the data set on HepaRG cells (24 h), the “Absolute peak area, HepaRG [25 μM]” value is 9.30E+04 and the “Absolute peak area, HepaRG [250 μM]” value was found to be 6.93E+06. Moreover, on CYP2C19, the “Detection … with CYP2C19” value is “–”.

On to `COC(=O)[C@@H](NC(=O)c1nn(CCCCF)c2ccccc12)C(C)(C)CO` [MB16], for which, in the data set on zebrafish larvae (24 h), the “Absolute peak area, Zebrafish larvae [25 μM]” value is given as 5.98E+06. In addition, the “Absolute peak area, pHLS9 1 h [25 μM]” value in data set [1] turned out to be 1.70E+05. Moreover, the “Detection … with CYP3A5” value at CYP3A5 is given as “+”. The “Detection … with CYP2D6” value at CYP2D6 was “–”. For the same compound, at CYP2C19, the “Detection … with CYP2C19” value is listed as “–”.
